Key:
BJ cells = assay: Viability of BJ cells (CellTiter-Blue Cell Viability Assay); type: cell-based, human; conditions: for IC50: Homo sapiens, BJ
Protocol: The BJ cells were seeded at densities of 10,000 cells in black flat bottom 96-well plates (Nalge Nunc, Penfield, Rochester, NY, USA) and treated with a dose–response of OLC (0–500 μM) and OLP (0–500 μM) for 24 h, 48 h, 72 h, and 7 days at 37 °C, 5% (v/v) CO2. Cell viability was measured using the Cell-Titer Blue® Assay kit (Promega, Madison, WI, USA) according to the manufacturer’s instructions. Cell-Titer Blue reagent was added to each well and incubated for 4 h at 37 °C with 5% (v/v) CO2 before the fluorescence intensity was read using the CLARIOstar Microplate Reader (BMG Labtech, Ortenberg, Germany).
A Nikon Eclipse Ts2 light microscope (Nikon Ti TS2-S-SM, Tokyo, Japan) was used to image untreated and treated BJ cells (OLP or OLC: 0–100 μM) at 4× objective magnification at 20, 44, and 120 h (Figures S1 and S2).

LSD1 = molecular target: T1, LSD1 (Homo sapiens, UniProt O60341); assay: LSD1 fluorescence coupling enzyme assay (Reaction Biology Corporation); type: biochemical; conditions: Reaction Biology Corp., 30 min pre-incubation, 10 μM histone H3(1-21)K4me2 peptide substrate; read-out: IC50, LSD1 demethylase activity
T1 construct: Reaction Biology Corporation (performed the assay)
Protocol: The inhibitory activity of HCl 489479, OLC, and OLP was measured using a fluorescence coupling enzyme assay (performed by Reaction Biology Corporation). […] All compounds were pre-incubated for 30 min with the enzyme before the addition of 10 μM histone H3(1-21)K4me2 peptide substrate to start the reaction. Fluorescence was measured using an EnVision Multimode Plate Reader at Ex/Em = 535/590.

purified MAO-A = molecular target: T2, purified MAO-A (Homo sapiens, UniProt P21397); assay: MAO-A direct screening assay (inhibitor screening kit); type: biochemical; conditions: purified enzyme; read-out: IC50, inhibition of MAO-A
T2 construct: purchased Sigma-Aldrich MAK295
T2 sequence (P21397 1-527): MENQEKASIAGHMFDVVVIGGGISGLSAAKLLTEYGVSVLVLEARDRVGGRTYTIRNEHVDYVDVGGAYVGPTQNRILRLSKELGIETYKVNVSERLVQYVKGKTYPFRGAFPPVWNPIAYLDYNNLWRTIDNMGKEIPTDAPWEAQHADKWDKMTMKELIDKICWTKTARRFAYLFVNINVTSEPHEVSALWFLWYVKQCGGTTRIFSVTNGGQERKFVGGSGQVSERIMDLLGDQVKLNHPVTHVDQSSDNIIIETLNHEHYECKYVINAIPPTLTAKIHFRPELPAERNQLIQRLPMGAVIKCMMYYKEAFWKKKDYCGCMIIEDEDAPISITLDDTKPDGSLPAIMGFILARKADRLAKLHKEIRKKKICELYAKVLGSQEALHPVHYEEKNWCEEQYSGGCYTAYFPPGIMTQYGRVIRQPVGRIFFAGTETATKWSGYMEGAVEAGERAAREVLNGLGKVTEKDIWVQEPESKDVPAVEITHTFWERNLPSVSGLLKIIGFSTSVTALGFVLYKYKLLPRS
Protocol: (§1) The assays were conducted for MAO-A and MAO-B according to the manufacturer’s instructions.

purified MAO-B = molecular target: T3, purified MAO-B (Homo sapiens, UniProt P27338); assay: MAO-B direct screening assay (inhibitor screening kit); type: biochemical; conditions: purified enzyme; read-out: IC50, inhibition of MAO-B
T3 construct: purchased Sigma-Aldrich MAK296
T3 sequence (P27338 1-520): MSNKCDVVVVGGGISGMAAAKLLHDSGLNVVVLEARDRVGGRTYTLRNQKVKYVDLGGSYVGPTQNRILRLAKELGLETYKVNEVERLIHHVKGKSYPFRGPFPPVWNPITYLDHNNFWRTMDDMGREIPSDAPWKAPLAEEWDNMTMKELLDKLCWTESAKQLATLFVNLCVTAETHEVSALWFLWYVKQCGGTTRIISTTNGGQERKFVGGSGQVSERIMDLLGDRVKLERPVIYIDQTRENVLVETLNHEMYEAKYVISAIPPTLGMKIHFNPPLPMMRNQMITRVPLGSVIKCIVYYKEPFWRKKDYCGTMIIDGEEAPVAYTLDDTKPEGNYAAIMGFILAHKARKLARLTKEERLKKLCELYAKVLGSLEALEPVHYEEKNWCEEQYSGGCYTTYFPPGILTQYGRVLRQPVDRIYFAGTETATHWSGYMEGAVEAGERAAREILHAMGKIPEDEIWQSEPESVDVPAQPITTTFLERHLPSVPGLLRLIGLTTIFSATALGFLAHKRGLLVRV
Protocol: as §1

MAO-B = test system: T4, MAO-B; assay: MAO-B activity assay in hESC-derived neurons stimulated with ATRA; type: cell-based, human; conditions: 1 μM ATRA 24 h, then TCP 5 μM, OLC 50 μM or OLP 50 μM for 24 h
T4 construct: endogenous in cells; host or cells: BJ human foreskin fibroblasts stimulated with DEX or HC
Protocol: An in vitro model of MDD was designed for stem cell-derived neuronal cells through incubation of 1 μM all-trans retinoic acid (Sigma-Aldrich PHR1187, St. Louis, MO, USA). All cell treatments were conducted in duplicate and replicated using independently differentiating neuronal plates.
Activity assays were commercially sourced from BioVision (Abcam, BioVision ab241031, Waltham, MA, USA) and were performed according to manufacturer’s instructions. The treatment groups were plated in duplicate on a black, flat 96-well microplate. The cells were homogenised in assay buffer using a microtube mixer at 4 °C and centrifuged at 10,000× g for 10 min. A Bradford assay was performed to determine the total protein concentration within each cell pellet (200 μg/well for BJ cells, 40 μg/well for hESC-derived neurons). Approximately 40 μL of supernatant was loaded into wells along with 10 μL of either […], or assay buffer for total MAO activity. A H2O2 standard was pipetted as supplied and 50 μL of reaction mix was pipetted into all wells. Using a CLARIOstar Plus Microplate Reader, (BMG Labtech, Ortenberg, Germany), fluorescence was measured kinetically at 25 °C for 60 min with Ex/Em = 535/587 nm.

MAO-A/B expression = assay: MAO-A/B protein expression in HC- or DEX-stimulated BJ cells (Western blotting); type: cell-based, human; conditions: 10 μM HC 5 days or 100 μM DEX 7 days, then 50 μM compound; Western blot
Protocol: The BJ cells were subsequently incubated with 10 μM HC or 100 μM DEX to stimulate MAO expression. […] The untreated BJ cells received normal growth medium. The cells were collected, homogenised, and analysed through Western blotting where the expression of MAO-A/B was determined through immunodetection of protein subtypes.

## COC(=O)[C@H](O)CC(=O)OCCc1ccc(O)c(O)c1 [OLP, oleohydroxypyretol]
BJ cells; 500 μM
  relative viability of BJ cells at the highest concentration: decreased
BJ cells; 25, 50, 75 and 100 μM, similar to untreated cells
  proliferation potential of BJ cells: maintained their proliferation potential
BJ cells; 24 h
  IC50: 220 µM
BJ cells; 48 h
  IC50: 257 µM
BJ cells; concentrations used in further experiments (50 μM)
  toxicity to BJ cells at the concentrations used in further experiments: non-toxic
BJ cells; up to 200 μM
  viability of BJ cells at lower concentrations: largely maintained
LSD1
  IC50: 0.12 µM
Purified MAO-A
  IC50: 0.85 µM
Purified MAO-B
  IC50: 32 µM
MAO-B
  MAO-B activity in hESC-derived neurons: significantly reduced
MAO-A/B expression
  MAO enzyme expression within BJ cells: Potent inhibition

— paper PMC11173677, “Identification and Evaluation of Olive Phenolics in the Context of Amine Oxidase Enzyme Inhibition and Depression: In Silico Modelling and In Vitro Validation” (Molecules, 2024)
